Source: ChEMBL document CHEMBL6114992, “Design, synthesis, biological evaluation, and mechanism of action of new pyrazines as anticancer agents in vitro and in vivo” (Bioorg Med Chem, 2025)
The source made the active and inactive calls. The rule behind the calls is not given here.

Key:
[1] = Toxicity in nude mouse xenografted with human SK-OV-3 cells assessed as histopathological change in kidney at 30 to 60 mg/kg, ip qd treated for 14 days by H and E staining based analysis; type: organism-based; conditions: in vivo, 336 h, dose 30-60 mg/kg, time 14 day
U-937 [2] = assay: Downregulation of Bcl-2 expression in human U-937 cells incubated for 48 hrs by Western blot analysis; type: functional, cell-based
U-937 [3] = assay: Induction of apoptosis in human U-937 cells assessed as early apoptotic cells at 0.5 uM incubated for 48 hrs by Annexin V-FITC/PI staining based flow cytometry (reference value: 2.72 %); type: functional
U-937 [4] = assay: Induction of apoptosis in human U-937 cells assessed as necrotic cells at 0.5 uM incubated for 48 hrs by Annexin V-FITC/PI staining based flow cytometry (reference value: 2.03 %); type: functional
U-937 [5] = assay: Downregulation of XIAP expression in human U-937 cells incubated for 48 hrs by Western blot analysis; type: functional, cell-based
SK-OV-3 [6] = assay: Antitumor activity against human SK-OV-3 cells xenografted in nude mouse assessed as tumor growth suppression at 30 to 60 mg/kg, ip qd treated for 14 days; type: functional, organism-based; conditions: dose 30-60 mg/kg, time 14.0 day
SK-OV-3 [7] = assay: Downregulation of GLI1 expression in human SK-OV-3 cells incubated for 48 hrs by Western blot analysis; type: functional, cell-based; conditions: dose 1-5 µM
U-937 [8] = assay: Downregulation of TAZ expression in human U-937 cells incubated for 48 hrs by Western blot analysis; type: functional, cell-based; conditions: dose 0.5-2.5 µM
KG-1 = assay: Downregulation of Bcl-XL expression in human KG-1 cells incubated for 48 hrs by Western blot analysis; type: functional, cell-based; conditions: dose 0.5-2.5 µM

Structure (SMILES) | Activity [1] | Activity (U-937 [2]) | Activity (U-937 [3]) [%] | Activity (U-937 [4]) [%] | Activity (U-937 [5]) | Activity (SK-OV-3 [6]) | Activity (SK-OV-3 [7]) | Activity (U-937 [8]) | Activity (KG-1)
Cc1nccnc1C(=O)/C=C/c1cccc(C#N)c1 | Non-toxic | Dose-dependent-effect | 9.68 | 2.64 | Dose-dependent-effect | Active | Dose-dependent-effect | Dose-dependent-effect | 
CCc1nccnc1C(=O)/C=C/c1ccccn1 |  |  |  |  |  |  |  |  | Dose-dependent-effect
